Measurements as given in patent publication US20040110802A1, “Antibacterial benzoic acid derivatives” (priority 2002, published 2004).
In brackets after ≈: the same amount, converted by molar mass.

Test system: SAUR 9218
Experiment: MIC Test Method, standard agar dilution
Type: cell-based
Settings: agar dilution, Mueller Hinton agar, incubated overnight at 35° C., lowest concentration that inhibits visible growth; for MIC: read-out: SAUR 9218 MIC
Outline: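 Agar dilution in Mueller Hinton agar with serial 2-fold compound dilutions. Staphylococcus aureus strain 9218 spotted at approximately 10^4 to 10^5 cells per spot, incubated overnight at 35 °C; MIC (μg/ml) is the lowest concentration preventing visible growth.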

MIC [µg/mL] | SAUR 9218 MIC [µg/mL] | Compound
32 (≈ 72.2 µM) | – | O=C(O)c1cc(Br)ccc1NC(=O)c1cc(OCc2ccccc2)cc[n+]1[O-]
0.125 (≈ 0.318 µM) | – | CCCCCCSc1ccc(C(=O)Nc2ccc(Cl)cc2C(=O)O)cn1
1 (≈ 2.74 µM) | – | CC(=O)Oc1ccc2c(C(=O)Nc3ccc(C#N)cc3C(=O)O)noc2c1
4 (≈ 9.63 µM) | – | CCCCn1c(C(=O)Nc2ccc(Br)cc2C(=O)O)cc2ccccc21
1 (≈ 2.49 µM) | – | N#Cc1ccc(NC(=O)c2cc3ccccc3n2CC2CCCCC2)c(C(=O)O)c1
0.125 (≈ 0.321 µM) | – | Cn1c(C(=O)Nc2ccc(C#N)cc2C(=O)O)cc2cccc(OCC3CC3)c21
0.125 (≈ 0.312 µM) | – | O=C(Nc1ccc(O)cc1C(=O)O)c1cc(-c2ccccc2-c2ccccc2)on1
0.5 (≈ 1.05 µM) | – | N#Cc1ccc(NC(=O)c2noc3ccc(S(=O)(=O)N(CCO)CCO)cc23)c(C(=O)O)c1
8 (≈ 17.8 µM) | – | N#Cc1ccc(NC(=O)c2cc3cccc(N4C(=O)c5ccccc5C4=O)c3[nH]2)c(C(=O)O)c1
16 (≈ 34.7 µM) | – | Cc1sc(C(=O)Nc2ccc(C#N)cc2C(=O)O)cc1S(=O)(=O)N1CC(C)CC(C)C1 (stereo not shown)
0.25 (≈ 0.516 µM) | – | CCSc1ccc(C(=O)Nc2cccc3cc(C(=O)Nc4ccc(C#N)cc4C(=O)O)[nH]c23)cc1
0.5 (≈ 1.55 µM) | – | N#Cc1ccc(NC(=O)c2noc3cc(N)ccc23)c(C(=O)O)c1
0.125 (≈ 0.255 µM) | – | Cn1c(C(=O)Nc2ccc(C#N)cc2C(=O)O)cc2cccc(N(S(C)(=O)=O)S(C)(=O)=O)c21
0.5 (≈ 1.55 µM) | – | N#Cc1ccc(NC(=O)c2noc3ccc(N)cc23)c(C(=O)O)c1
4 (≈ 7.2 µM) | – | Cc1sc(C(=O)Nc2ccc(C#N)cc2C(=O)O)cc1S(=O)(=O)N1CCN(c2ccc([N+](=O)[O-])cc2)CC1
0.125 (≈ 0.31 µM) | – | Cn1c(C(=O)Nc2ccc(C#N)cc2C(=O)O)cc2cccc(OCC3CCC3)c21
> 128 | – | O=C(Nc1ccc(Br)cc1C(=O)O)c1cccs1
0.125 (≈ 0.356 µM) | – | N#Cc1ccc(NC(=O)c2cc(-c3ccccc3F)on2)c(C(=O)O)c1
8 (≈ 17.3 µM) | – | N#Cc1ccc(NC(=O)c2cccc3c2CCN(Cc2ccccc2)S3(=O)=O)c(C(=O)O)c1
2 (≈ 5.39 µM) | – | CC(C)Cn1c(C(=O)Nc2ccc(Cl)cc2C(=O)O)cc2ccccc21
1 (≈ 2.27 µM) | – | N#Cc1ccc(NC(=O)c2cc3cccc(NC(=O)c4ccccc4O)c3[nH]2)c(C(=O)O)c1
1 (≈ 2.35 µM) | – | CCCCCCCCCSc1ccc(C(=O)Nc2ccc(C#N)cc2C(=O)O)cn1
0.5 (≈ 1.08 µM) | – | C#CCCOCC(O)COc1cccc2cc(C(=O)Nc3ccc(C#N)cc3C(=O)O)n(C)c12 (stereo not shown)
0.25 (≈ 0.515 µM) | – | COc1ccc(-c2ccc3cc(C(=O)Nc4ccc(C#N)cc4C(=O)O)n(C)c3c2)c(OC)c1OC
4 (≈ 8.86 µM) | – | Cn1c(C(=O)Nc2ccc(C#N)cc2C(=O)O)cc2cccc(-c3ccc(C(C)(C)C)cc3)c21

MIC [µg/mL] | SAUR 9218 MIC [µg/mL] | Compound
0.06 (≈ 0.0957 µM) | – | Cn1c(C(=O)Nc2ccc(C#N)cc2C(=O)O)cc2ccc(N(S(=O)(=O)c3cccs3)S(=O)(=O)c3cccs3)cc21
> 128 | – | Cc1sc(C(=O)Nc2ccc(C#N)cc2C(=O)O)cc1S(=O)(=O)N1CCN(Cc2ccccc2)CC1
0.5 (≈ 1.11 µM) | – | COC(=O)CCCC(=O)Nc1cccc2cc(C(=O)Nc3ccc(C#N)cc3C(=O)O)[nH]c12
2 (≈ 4.25 µM) | – | COCCOCCCSc1cnc(C(=O)Nc2ccc(Br)cc2C(=O)O)cn1
0.5 (≈ 1.02 µM) | – | N#Cc1ccc(NC(=O)c2[nH]c3c(OCc4ccccc4)cccc3c2Br)c(C(=O)O)c1
0.5 (≈ 1.36 µM) | – | N#Cc1ccc(NC(=O)c2ccc(SC3CCCC3)nc2)c(C(=O)O)c1
1 (≈ 3.49 µM) | – | Cc1ccsc1C(=O)Nc1ccc(C#N)cc1C(=O)O
> 128 | – | N#Cc1ccc(NC(=O)c2cc(-c3ccccc3Oc3cccc(-c4ccccc4)c3)on2)c(C(=O)O)c1
32 (≈ 92.4 µM) | – | N#Cc1ccc(NC(=O)c2cccc(Br)n2)c(C(=O)O)c1
2 (≈ 4.71 µM) | – | N#Cc1ccc(NC(=O)c2cc3cccc(NC(=O)c4ccccc4)c3[nH]2)c(C(=O)O)c1
0.125 (≈ 0.34 µM) | – | N#Cc1ccc(NC(=O)c2cc(-c3ccccc3Cl)on2)c(C(=O)O)c1
0.25 (≈ 0.531 µM) | – | CCCN(CCC)S(=O)(=O)c1ccc2onc(C(=O)Nc3ccc(C#N)cc3C(=O)O)c2c1
0.125 (≈ 0.32 µM) | – | N#Cc1ccc(NC(=O)c2cnc(SCc3ccccc3)cn2)c(C(=O)O)c1
1 (≈ 2.23 µM) | – | N#Cc1cccc(C(=O)Nc2cccc3cc(C(=O)Nc4ccc(C#N)cc4C(=O)O)[nH]c23)c1
– | 0.5 | O=C(Nc1ccc(Cl)cc1C(=O)O)c1cc(-c2ccccc2)on1 [drawing 1111]
0.5 (≈ 1.38 µM) | – | COCCn1c(C(=O)Nc2ccc(C#N)cc2C(=O)O)cc2ccccc21
1 (≈ 2.92 µM) | – | O=C(Nc1ccc(Cl)cc1C(=O)O)c1cc(-c2ccccc2)on1 [drawing 1106]
0.25 (≈ 0.568 µM) | – | NS(=O)(=O)c1ccc2onc(C(=O)Nc3ccc(Br)cc3C(=O)O)c2c1
0.125 (≈ 0.27 µM) | – | Cn1c(C(=O)Nc2ccc(C#N)cc2C(=O)O)cc2ccc(-c3ccccc3C(F)(F)F)cc21
> 128 | – | Cc1c(S(=O)(=O)N2CC3CC2CN3Cc2ccccc2)csc1C(=O)Nc1ccc(Br)cc1C(=O)O (stereo not shown)
0.5 (≈ 1.11 µM) | – | CC(=O)Nc1cccc(-c2cccc3cc(C(=O)Nc4ccc(C#N)cc4C(=O)O)n(C)c23)c1
0.125 (≈ 0.285 µM) | – | CCCCCCSc1ccc(C(=O)Nc2ccc(Br)cc2C(=O)O)nn1
0.5 (≈ 1.14 µM) | – | CCCCCCSc1ccc(C(=O)Nc2ccc(Br)cc2C(=O)O)nc1
8 (≈ 16.4 µM) | – | COCOCC(CCc1cc(C(=O)Nc2ccc(Br)cc2C(=O)O)no1)OCOC (stereo not shown)
